Series [1] has as its target T1, 5-HT2 receptor (A7r5 rat vascular smooth muscle cells) (Rattus norvegicus, UniProt P14842).
T1 construct: endogenous in cells; host or cells: A7r5 rat vascular smooth muscle cells
Briefly: 5-HT2 functional assay: [Ca2+]i mobilization (FLIPR). Format: cell-based. To be noted: for pEC50: [Ca2+]i mobilization; for Emax: percentage of maximum 5-HT-induced response, read-out: Efficacy (Emax, %). On the procedure:
Method 2: 5-HT2 Functional Assay: [Ca^2+]i Mobilization
The receptor-mediated mobilization on intracellular calcium ([Ca^2+]i) was studied using the Fluorescence Imaging Plate Reader (FLIPR) instrument. Rat vascular smooth muscle cells, A7r5, were grown in a normal media of DMEM/10% FBS and 10 μg/mL gentamycin. Confluent cell monolayers were trypsinized, pelleted, and re-suspended in normal media. Cells were seeded in a […] volume at a density of 20,000 cells/well in a black wall, 96-well tissue culture plate and grown for 2 days.
On the day of the experiment, one vial of FLIPR Calcium Assay Kit dye was re-suspended in 50 mL of a FLIPR buffer consisting of Hank's Balanced Salt Solution (HBSS), 20 mM HEPES, and 2.5 mM probenecid, pH 7.4. Cells were loaded with the calcium-sensitive dye by addition of an equal volume (50 μL) to each well of the 96-well plate and incubated with dye for 1 h at 23° C.
Typically, test compounds were stored at 25 μM in 50% DMSO/50% Ethanol solvent. Compounds were diluted 1:50 in 20% DMSO/20% Ethanol. For “hit” screening, compounds were further diluted 1:10 in FLIPR buffer and tested at a final concentration of 10 μM. For dose-response experiments, compounds were diluted 1:50 in FLIPR buffer and serially diluted 1:10 to give a 5- or 8-point dose-response curve.
The compound plate and cell plate were placed in the FLIPR instrument. At the beginning of an experimental run, a signal test was performed to check the basal fluorescence signal from the dye-loaded cells and the uniformity of the signal across the plate. The basal fluorescence was adjusted between 8000-12000 counts by modifying the exposure time, the camera F-stop, or the laser power. Instrument settings for a typical assay were the following: laser power 0.3-0.6 W, camera F-stop F/2, and exposure time 0.4 sec. An aliquot (25 μL) of the test compound was added to the existing 100 μL dye-loaded cells at a dispensing speed of 50 μL/sec. Fluorescence data were collected in real-time at 1.0 sec intervals for the first 60 secs and at 6.0 sec intervals for an additional 120 secs. Responses were measured as peak fluorescence intensity minus basal and where appropriate were expressed as a percentage of a maximum 5-HT-induced response. When the compounds were tested as antagonists against 10 μM 5-HT, they were incubated with the cells for 15 minutes prior to the addition of 5-HT.

In series [2] the test system is lasered (hypertensive) eyes of conscious cynomolgus monkeys. The series can be described thus: Acute IOP response in lasered (hypertensive) eyes of conscious cynomolgus monkeys. Format: in vivo. As to conditions: lasered monkey eye. As to the method:
Method 3: Acute IOP Response in Lasered (Hypertensive) Eyes of Conscious Cynomolgus Monkeys
Intraocular pressure (IOP) can be determined with an Alcon Pneumatonometer after light corneal anesthesia with 0.1% proparacaine. Eyes are washed with saline after each measurement. After a baseline IOP measurement, test compound is instilled in one 30 μL aliquot to the right eyes only of nine cynomolgus monkeys. Vehicle is instilled in the right eyes of six additional animals. Subsequent IOP measurements are taken at 1, 3, and 6 hours.
The above method was used to determine the IOP lowering efficacy of the compound of Example 1 (dosed at a concentration of 300 μg).

The mark [3] stands for this setting: 1 hr after topical dose of 300 μg.
[4] abbreviates: 3 hrs after topical dose of 300 μg.
Setting [5] is: 6 hrs after topical dose of 300 μg.

pEC50: −log10 of the molar value. Structures can show the parent of a compound that is named as a salt.

T1 sequence (P14842 whole entry): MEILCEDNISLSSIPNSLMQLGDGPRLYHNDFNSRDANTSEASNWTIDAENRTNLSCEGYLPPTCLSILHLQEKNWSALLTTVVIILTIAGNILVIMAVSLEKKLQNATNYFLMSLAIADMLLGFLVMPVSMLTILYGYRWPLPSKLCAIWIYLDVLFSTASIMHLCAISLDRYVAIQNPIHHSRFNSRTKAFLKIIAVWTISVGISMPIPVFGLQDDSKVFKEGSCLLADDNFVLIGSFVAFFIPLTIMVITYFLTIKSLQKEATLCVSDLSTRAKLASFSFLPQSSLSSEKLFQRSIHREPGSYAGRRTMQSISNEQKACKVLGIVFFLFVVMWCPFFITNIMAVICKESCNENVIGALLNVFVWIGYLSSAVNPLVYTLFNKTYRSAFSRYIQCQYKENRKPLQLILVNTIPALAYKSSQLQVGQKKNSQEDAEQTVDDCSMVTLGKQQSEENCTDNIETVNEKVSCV

A word on the pEC50: it is −log10 of the EC50, conventionally taken in molar units. A word on the Emax: it is the greatest response seen or fitted, relative to the assay's reference. One may read the melting point as the temperature of the solid-liquid transition. `C[C@H](N)Cn1ncc2ccc3c(c21)O[C@H](CO)CO3.Cl` [Example 2, [(R)-1-((S)-2-Aminopropyl)-7,8-dihydro-1H-[1,4]dioxino[2,3-g]indazol-8-yl]-methanol hydrochloride] came in with a melting point of 112 to 116 °C. Also, in series [1], the negative logarithm of the EC50 (pEC50) is 7.28 and the Emax is 77%.

In the case of `C[C@H](N)Cn1ncc2ccc3c(c21)OCCO3` [Example 3, (S)-2-(7,8-Dihydro-[1,4]dioxino[2,3-g]indazol-1-yl)-1-methyl-ethylamine hydrochloride], in series [1], the pEC50 was 7.57 and the Emax came to 92%.

In series [1], `C[C@H](N)Cn1ncc2ccc3c(c21)O[C@@H](CO)CO3` [Example 1, [(S)-1-((S)-2-Amino-propyl)-7,8-dihydro-1H-[1,4]dioxino[2,3-g]indazol-8-yl]-methanol hydrochloride] had a negative-log EC50 (pEC50) of 7.51. In addition, the Emax in series [1] was 39%. The IOP % change in series [2] (setting [3]) was −4.3%; in series [2] (setting [4]), −15.8%; in series [2] (setting [5]), −23.6%. The “IOP Change mmHg” value in series [2] (setting [3]) is given as −2.2 mmHg; in series [2] (setting [4]) it was −6.8 mmHg; in series [2] (setting [5]) it was −9.6 mmHg.

The compound `CCS(=O)(=O)NC[C@H]1COc2ccc3cnn(C[C@H](C)N)c3c2O1.Cl` [Example 5, Ethanesulfonic acid [(S)-1-((S)-2-amino-propyl)-7,8-dihydro-1H-[1,4]dioxino[2,3-g]indazol-8-ylmethyl]-amide hydrochloride] had a melting point of 243 to 244 °C. In series [1], the pEC50 is 7.17 and the maximal effect (Emax) is 82%.

On to `C[C@H](N)Cn1ncc2ccc3c(c21)O[C@@H](CN)CO3` [Example 8, (S)-2-((S)-8-Aminomethyl-7,8-dihydro-[1,4]dioxino[2,3-g]indazol-1-yl)-1-methyl-ethylamine hydrochloride], for which, in series [1], the pEC50 is 6.63 and the maximum response (Emax) was determined as 54%.

`COC(=O)NC[C@H]1COc2ccc3cnn(C[C@H](C)N)c3c2O1.Cl` [Example 7, [(S)-1-((S)-2-Amino-propyl)-7,8-dihydro-1H-[1,4]dioxino[2,3-g]indazol-8-ylmethyl]-carbamic acid methyl ester hydrochloride] came in with a melting point of 265 to 266 °C. Besides, in series [1], the negative-log EC50 (pEC50) is 7.04 and the Emax is 66%.

Take `COC(=O)NC[C@@H]1COc2ccc3cnn(C[C@H](C)N)c3c2O1` [Example 9, [(R)-1-((S)-2-Amino-propyl)-7,8-dihydro-1H-[1,4]dioxino[2,3-g]indazol-8-ylmethyl]-carbamic acid methyl ester hydrochloride]: in series [1], the pEC50 is 6.97 and the maximal effect (Emax) is 44%.

Consider `CC(C)C(=O)NC[C@H]1COc2ccc3cnn(C[C@H](C)N)c3c2O1` [Example 6, N-[(S)-1-((S)-2-Amino-propyl)-7,8-dihydro-1H-[1,4]dioxino[2,3-g]indazol-8-ylmethyl]-isobutyramide hydrochloride], for which, in series [1], the pEC50 was 6.90 and the maximum response (Emax) was determined as 59%.

In the case of `C[C@H](N)Cn1ncc2ccc3c(c21)O[C@@H](CO)CO3` (as salt: hydrochloride) [Example 1, [(S)-1-((S)-2-Amino-propyl)-7,8-dihydro-1H-[1,4]dioxino[2,3-g]indazol-8-yl]-methanol hydrochloride], the melting point was in the range of 202 to 203 °C.

Take `C[C@H](N)Cn1ncc2ccc3c(c21)O[C@@H](CNS(C)(=O)=O)CO3.Cl` [Example 4, N-[(S)-1-((S)-2-Amino-propyl)-7,8-dihydro-1H-[1,4]dioxino[2,3-g]indazol-8-ylmethyl]-methanesulfonamide hydrochloride]: the melting point was in the range of 235 to 236 °C. In addition, in series [1], the pEC50 is 7.11 and the Emax came to 81%.

Source of the values: US7425572B2, “Use of dioxindoindazoles and dioxoloindazoles for treating glaucoma” (Alcon, Inc., priority 2004, dated 2008).
